Laboratory results taken from US20230365537A1, “POLO LIKE KINASE 4 INHIBITORS” (ORIC Pharmaceuticals, Inc., priority 2021, published 2023).

What was measured:
CHP-134 cells = assay: CHP134 CellTiter-Glo (CTG) Assay; type: cell-based; conditions: Homo sapiens, CHP-134, 120 h, 5 days, viable cells by CellTiter-Glo
Procedure: Cells were seeded (200 cells/well) in 384-well plates for 16 hours. On day two, nine serial 1:3 compound dilutions were made in DMSO in a 96-well plate. The compounds were then further diluted into growth media using a BRAVO robot (Agilent, Santa Clara, CA). The diluted compounds were then added to quadruplicate wells in the 384-well cell plate and incubated at 37° C. and 5% CO2. After 5 days, relative numbers of viable cells were measured by luminescence using CellTiter-Glo® (Promega) according to the manufacturer’s instructions and read on a SPARK Multimode Microplate Reader (Tecan, Mannedorf Switzerland). The IC50 calculations for the values reported in Table 2 were carried out using Prism 6.0 software (GraphPad, San Diego).

human recombinant PLK4 = human recombinant PLK4 (Homo sapiens (Human), UniProt O00444); assay: PLK4 Biochemical Assay (ADP-Glo); conditions: 0.5 nM PLK4, 8.0 µM ATP, 4.7 µM MBP, 6 hours at RT
human recombinant PLK4, sequence (O00444 whole entry): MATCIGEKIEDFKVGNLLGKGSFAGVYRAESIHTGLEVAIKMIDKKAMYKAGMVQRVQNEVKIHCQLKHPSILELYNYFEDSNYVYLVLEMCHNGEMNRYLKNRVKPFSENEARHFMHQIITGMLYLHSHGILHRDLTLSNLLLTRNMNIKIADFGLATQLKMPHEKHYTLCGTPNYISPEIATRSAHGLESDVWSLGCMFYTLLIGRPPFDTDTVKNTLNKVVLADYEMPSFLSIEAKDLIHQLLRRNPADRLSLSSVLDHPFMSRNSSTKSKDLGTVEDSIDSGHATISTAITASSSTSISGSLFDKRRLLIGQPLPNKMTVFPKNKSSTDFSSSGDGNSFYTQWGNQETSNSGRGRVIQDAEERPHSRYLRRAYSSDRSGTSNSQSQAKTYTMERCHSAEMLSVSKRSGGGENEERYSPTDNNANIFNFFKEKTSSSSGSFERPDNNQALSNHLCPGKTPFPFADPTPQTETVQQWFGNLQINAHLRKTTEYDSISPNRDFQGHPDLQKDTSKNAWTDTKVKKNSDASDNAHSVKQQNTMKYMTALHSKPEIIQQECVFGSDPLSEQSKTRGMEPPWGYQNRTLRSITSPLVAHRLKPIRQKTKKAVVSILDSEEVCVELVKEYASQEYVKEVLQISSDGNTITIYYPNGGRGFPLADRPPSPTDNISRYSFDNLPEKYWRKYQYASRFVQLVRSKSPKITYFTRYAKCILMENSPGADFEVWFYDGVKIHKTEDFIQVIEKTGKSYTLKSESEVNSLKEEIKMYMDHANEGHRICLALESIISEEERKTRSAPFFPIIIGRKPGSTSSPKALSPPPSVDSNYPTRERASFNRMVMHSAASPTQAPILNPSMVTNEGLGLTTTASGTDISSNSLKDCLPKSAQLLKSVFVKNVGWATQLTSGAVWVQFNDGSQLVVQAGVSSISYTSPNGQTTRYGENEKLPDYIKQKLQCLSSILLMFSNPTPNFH
Procedure, shortened: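 Luminescent ADP-Glo detection quantified ADP production, with ATP depletion for 40 min and detection for 30 min at room temperature. Compound and PLK4 (1.0 nM stock addition) were preincubated 15 min in HEPES pH 7.5 buffer containing MgCl2, EGTA, DTT, Brij-35 and BSA. IC50 values were obtained by four-parameter nonlinear regression.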

[1] = target: human recombinant Aurora A (Homo sapiens (Human), UniProt O14965); assay: Aurora A Kinase Biochemical Assay (ADP-Glo); conditions: ratio of Aurora A IC50 to PLK4 IC50 (selectivity)
human recombinant Aurora A, sequence (O14965 whole entry): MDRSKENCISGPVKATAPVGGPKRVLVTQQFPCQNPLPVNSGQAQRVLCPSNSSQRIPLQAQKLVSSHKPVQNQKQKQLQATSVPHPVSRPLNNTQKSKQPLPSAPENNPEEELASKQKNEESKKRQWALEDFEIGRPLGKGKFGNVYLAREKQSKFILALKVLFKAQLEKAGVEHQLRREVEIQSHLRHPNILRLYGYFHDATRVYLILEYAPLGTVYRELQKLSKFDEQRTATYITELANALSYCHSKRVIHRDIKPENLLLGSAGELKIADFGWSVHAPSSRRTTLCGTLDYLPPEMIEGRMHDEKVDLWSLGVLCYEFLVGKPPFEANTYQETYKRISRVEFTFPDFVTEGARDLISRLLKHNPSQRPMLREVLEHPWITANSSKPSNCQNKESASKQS

[2] = target: human recombinant Aurora B (Homo sapiens (Human), UniProt Q96GD4); assay: Aurora B Kinase Biochemical Assay (ADP-Glo); conditions: ratio of Aurora B IC50 to PLK4 IC50 (selectivity)
human recombinant Aurora B, sequence (Q96GD4 whole entry): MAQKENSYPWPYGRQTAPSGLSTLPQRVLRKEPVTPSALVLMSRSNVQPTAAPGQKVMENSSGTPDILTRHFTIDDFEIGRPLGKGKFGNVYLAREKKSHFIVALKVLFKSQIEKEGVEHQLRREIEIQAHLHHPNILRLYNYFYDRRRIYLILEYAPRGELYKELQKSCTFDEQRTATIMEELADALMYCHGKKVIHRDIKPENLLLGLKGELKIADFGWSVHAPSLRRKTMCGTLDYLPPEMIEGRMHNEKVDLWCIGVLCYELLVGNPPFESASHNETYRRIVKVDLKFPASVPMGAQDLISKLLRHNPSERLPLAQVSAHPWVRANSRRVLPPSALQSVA
Procedure, shortened: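 IC50 derived by four-parameter nonlinear fit of ADP-Glo luminescence (ADP produced). Compound was preincubated 15 min at RT with 20 nM recombinant human Aurora B, in 50 mM HEPES pH 7.5, 10 mM MgCl2, 1 mM EGTA, 1 mM DTT, 0.01% Brij-35/BSA.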

Row | Structure (SMILES) | IC50 (human recombinant PLK4) | [Aurora A IC50 (nM)]/[PLK4 IC50 (nM)] [1] | [Aurora B IC50 (nM)]/[PLK4 IC50 (nM)] [2] | IC50 (CHP-134 cells)
1 | COc1ccc2c(c1)[C@]1(CC1c1ccc3c(/C=C/c4ccc(CN5C[C@@H](C)O[C@@H](C)C5)cc4)n[nH]c3c1)C(=O)N2 (stereo partly shown) [CFI-400495, reference compound] |  |  |  | 9.08 nM
2 | COc1ccc2c(c1)[C@]1(C[C@H]1c1ccc3c(Nc4nc(OC)ncc4OC)n[nH]c3c1)C(=O)N2 [Example 156, (1R,2S)-2-{3-[(2,5-dimethoxypyrimidin-4-yl)amino]-1H-indazol-6-yl}-5′-methoxyspiro[cyclopropane-1,3′-indol]-2′(1′H)-one] |  |  |  | 494 nM
3 | COc1ccc2c(c1)[C@]1(C[C@H]1c1ccc3c(Nc4cc(N5CCN(C)C5=O)cnc4OC)n[nH]c3c1)C(=O)N2 [Example 221, (1R,2S)-5′-methoxy-2-(3-{[2-methoxy-5-(3-methyl-2-oxoimidazolidin-1-yl)pyridin-3-yl]amino}-1H-indazol-6-yl)spiro[cyclopropane-1,3′-indol]-2′(1′H)-one] |  |  |  | 849 nM
4 | COc1ccc2c(c1)[C@]1(C[C@H]1c1ccc3c(Nc4cc(S(=O)(=O)C5CCOCC5)ccc4OC)n[nH]c3c1)C(=O)N2 [Example 224, (1R,2S)-5′-methoxy-2-{3-[2-methoxy-5-(oxane-4-sulfonyl)anilino]-1H-indazol-6-yl}spiro[cyclopropane-1,3′-indol]-2′(1′H)-one] |  |  |  | 2020 nM
5 | CCOc1nc(C(=O)N(C)C)cnc1Nc1n[nH]c2cc([C@@H]3C[C@@]34C(=O)Nc3ccc(OC)cc34)ccc12 [Example 237, 6-ethoxy-5-({6-[(1R,2S)-5′-methoxy-2′-oxo-1′,2′-dihydrospiro[cyclopropane-1,3′-indol]-2-yl]-1H-indazol-3-yl}amino)-N,N-dimethylpyrazine-2-carboxamide] | 2.94 nM | 3385.3211 | 369 | 
6 | COc1ccc2c(c1)[C@]1(C[C@H]1c1ccc3c(Nc4ccc(C(=O)NC(CF)CF)nc4OC)n[nH]c3c1)C(=O)N2 [Example 250, N-(1,3-difluoropropan-2-yl)-6-methoxy-5-({6-[(1R,2S)-5′-methoxy-2′-oxo-1′,2′-dihydrospiro[cyclopropane-1,3′-indol]-2-yl]-1H-indazol-3-yl}amino)pyridine-2-carboxamide] | 6.19 nM | 819.6509 | 110.6011 | 
7 | COc1ccc2c(c1)[C@]1(C[C@H]1c1ccc3c(Nc4cc5oc(C)nc5cc4Cl)n[nH]c3c1)C(=O)N2 [Example 252, (1R,2S)-2-{3-[(5-chloro-2-methyl-1,3-benzoxazol-6-yl)amino]-1H-indazol-6-yl}-5′-methoxyspiro[cyclopropane-1,3′-indol]-2′(1′H)-one] | 9.28 nM | 518.4227 | 365.8694 | 
8 | COc1ccc2c(c1)[C@]1(C[C@H]1c1ccc3c(Nc4ccc(C#N)nc4OC)n[nH]c3c1)C(=O)N2 [Example 260, 6-methoxy-5-({6-[(1R,2S)-5′-methoxy-2′-oxo-1′,2′-dihydrospiro[cyclopropane-1,3′-indol]-2-yl]-1H-indazol-3-yl}amino)pyridine-2-carbonitrile] | 9.33 nM | 1330.5457 | 294.8429 | 
9 | CCP(=O)(CC)c1ccc(OC)c(Nc2n[nH]c3cc([C@@H]4C[C@@]45C(=O)Nc4ccc(OC)cc45)ccc23)c1 [Example 261, (1R,2S)-2-{3-[5-(diethylphosphoryl)-2-methoxyanilino]-1H-indazol-6-yl}-5′-methoxyspiro[cyclopropane-1,3′-indol]-2′(1′H)-one] | 7.91 nM | 5824.2730 | 2807.8381 | 
10 | COc1ccc2c(c1)[C@]1(C[C@H]1c1ccc3c(Nc4nc(C(C)(C)O)ccc4OC)n[nH]c3c1)C(=O)N2 [Example 278, (1R,2S)-2-(3-{[6-(2-hydroxypropan-2-yl)-3-methoxypyridin-2-yl]amino}-1H-indazol-6-yl)-5′-methoxy-1′H-spiro[cyclopropane-1,3′-indol]-2′-one] | 0.804 nM | 1269.9004 | 423.6318 | 

More lines, in order of falling IC50 (human recombinant PLK4), values ahead:

Row | IC50 (human recombinant PLK4) | [Aurora A IC50 (nM)]/[PLK4 IC50 (nM)] [1] | [Aurora B IC50 (nM)]/[PLK4 IC50 (nM)] [2] | Structure (SMILES) | IC50 (CHP-134 cells)
11 | 6.56 nM | 2585.7077 | 451.7751 | COc1ccc2c(c1)[C@]1(C[C@H]1c1ccc3c(Nc4cnc(P(C)(C)=O)cc4OC)n[nH]c3c1)C(=O)N2 [Example 249, (1R,2S)-2-(3-{[6-(dimethylphosphoryl)-4-methoxypyridin-3-yl]amino}-1H-indazol-6-yl)-5′-methoxyspiro[cyclopropane-1,3′-indol]-2′(1′H)-one] | 
12 | 5.98 nM | 709.6288 | 88.7161 | COc1ccc2c(c1)[C@]1(C[C@H]1c1ccc3c(Nc4cnc(C(=O)N(C)C)cc4OC)n[nH]c3c1)C(=O)N2 [Example 253, 4-methoxy-5-({6-[(1R,2S)-5′-methoxy-2′-oxo-1′,2′-dihydrospiro[cyclopropane-1,3′-indol]-2-yl]-1H-indazol-3-yl}amino)-N,N-dimethylpyridine-2-carboxamide] | 
13 | 2.26 nM | 949.6021 | 114.8983 | COc1ccc2c(c1)[C@]1(C[C@H]1c1ccc3c(Nc4ncc(C(=O)N(C)C)nc4OC)n[nH]c3c1)C(=O)N2 [Example 236, 6-methoxy-5-({6-[(1R,2S)-5′-methoxy-2′-oxo-1′,2′-dihydrospiro[cyclopropane-1,3′-indol]-2-yl]-1H-indazol-3-yl}amino)-N,N-dimethylpyrazine-2-carboxamide] | 
14 | 2.2 nM | 1120.5641 | 1049.1355 | CCOc1cc(=O)n(C)nc1Nc1n[nH]c2cc([C@@H]3C[C@@]34C(=O)Nc3ccc(OC)cc34)ccc12 [Example 277, (1R,2S)-2-{3-[(4-ethoxy-1-methyl-6-oxo-1,6-dihydropyridazin-3-yl)amino]-1H-indazol-6-yl}-5′-methoxyspiro[cyclopropane-1,3′-indol]-2′(1′H)-one] | 
15 | 1.93 nM | 727.2256 | 309.1097 | COc1ccc2c(c1)[C@]1(C[C@H]1c1ccc3c(Nc4ncc(S(=O)(=O)C(F)F)cc4OC)n[nH]c3c1)C(=O)N2 [Example 280, (1R,2S)-2-{3-[(5-difluoromethanesulfonyl-3-methoxypyridin-2-yl)amino]-1H-indazol-6-yl}-5′-methoxy-1′H-spiro[cyclopropane-1,3′-indol]-2′-one] | 
16 | 1.34 nM | 37425.1497 | 2792.6646 | CCOc1cc(S(C)(=O)=O)ncc1Nc1n[nH]c2cc([C@@H]3C[C@@]34C(=O)Nc3ccc(OC)cc34)ccc12 [Example 279, (1R,2S)-2-{3-[(4-ethogy-6-methanesulfonylpyridin-3-yl)amino]-1H-indazol-6-yl}-5′-methoxy-1′H-spiro[cyclopropane-1,3′-indol]-2′-one] | 
17 | 0.59 nM | 2162.7118 | 230 | CCOc1cc(S(=O)(=O)NC)cnc1Nc1n[nH]c2cc([C@@H]3C[C@@]34C(=O)Nc3ccc(OC)cc34)ccc12 [Example 275, 5-ethoxy-6-({6-[(1R,2S)-5′-methoxy-2′-oxo-1′,2′-dihydrospiro[cyclopropane-1,3′-indol]-2-yl]-1H-indazol-3-yl}amino)-N-methylpyridine-3-sulfonamide] | 
